Reference: patent US20130296383A1, “DECAHYDRO-1,4-METHANONAPHTHALEN CARBOXAMIDES” (BAYER INTELLECTUAL PROPERTY GMBH, priority 2010, published 2013)

Tests used:
[1] = log P by HPLC on reversed phase columns (EEC directive 79/831 Annex V.A8), method [b]; format: physicochemical
Procedure: Calibration was done with not branched alkan2-ones (with 3 to 16 carbon atoms) with known log P-values (measurement of log P values using retention times with linear interpolation between successive alkanones). lambda-maX-values were determined using UV-spectra from 200 nm to 400 nm and the peak values of the chromatographic signals.

Sphaerotheca fuliginea = assay: Sphaerotheca test (cucumber) / preventive; format: in vivo; conditions: 500 ppm of active ingredient, evaluated 7 days after inoculation
Procedure: Sphaerotheca Test (Cucumber)/Preventive
(§1) To produce a suitable preparation of active compound, 1 part by weight of active compound is mixed with the stated amounts of solvent and emulsifier, and the concentrate is diluted with water to the desired concentration.
To test for preventive activity, young plants are sprayed with the preparation of active compound at the stated rate of application. One day after this treatment, the plants are inoculated with an aqueous spore suspension of Sphaerotheca fuliginea. Then the plants are placed in a greenhouse at approximately 23° C. and a relative atmospheric humidity of approximately 70%.
(§2) The test is evaluated 7 days after the inoculation. 0% means an efficacy which corresponds to that of the untreated control, while an efficacy of 100% means that no disease is observed.

Alternaria solani = assay: Alternaria test (tomato) / preventive; format: in vivo; conditions: 500 ppm of active ingredient, evaluated 7 days after inoculation
Procedure: Alternaria Test (Tomato)/Preventive
as §1
To test for preventive activity, young plants are sprayed with the preparation of active compound at the stated rate of application. One day after this treatment, the plants are inoculated with an aqueous spore suspension of Alternaria solani. The plants remain for one day in an incubation cabinet at approximately 22° C. and a relative atmospheric humidity of 100%. Then the plants are placed in an incubation cabinet at approximately 20° C. and a relative atmospheric humidity of 96%.
The test is evaluated 7 days after the inoculation. 0% means an efficacy which corresponds to that of the untreated control while an efficacy of 100% means that no disease is observed.

Pyrenophora teres = assay: Pyrenophora test (barley) / preventive; format: in vivo; conditions: 500 ppm of active ingredient, evaluated 7-9 days after inoculation
Procedure: Pyrenophora Test (Barley)/Preventive
as §1
(§3) To test for preventive activity, young plants are sprayed with the preparation of active compound at the stated rate of application. One day after this treatment, the plants are inoculated with an aqueous spore suspension of Pyrenophora teres. The plants remain for 48 hours in an incubation cabinet at 22° C. and a relative atmospheric humidity of 100%. Then the plants are placed in a greenhouse at a temperature of approximately 20° C. and a relative atmospheric humidity of approximately 80%.
(§4) The test is evaluated 7-9 days after the inoculation. 0% means an efficacy which corresponds to that of the untreated control while an efficacy of 100% means that no disease is observed.

Puccinia recondita = assay: Puccinia test (wheat) / preventive; format: in vivo; conditions: 500 ppm of active ingredient, evaluated 7-9 days after inoculation
Procedure: Puccinia Test (Wheat)/Preventive
as §1
as §3, with “Puccinia recondita.” for “Pyrenophora teres.”
as §4

Venturia inaequalis = assay: Venturia test (apples) / preventive; format: in vivo; conditions: 100 ppm of active ingredient, evaluated 10 days after inoculation
Procedure: Venturia Test (Apples)/Preventive
as §1
To test for preventive activity, young plants are sprayed with the preparation of active compound at the stated rate of application. After the spray coating has dried on, the plants are inoculated with an aqueous conidia suspension of the causal agent of apple scab (Venturia inaequalis) and then remain for 1 day in an incubation cabinet at approximately 20° C. and a relative atmospheric humidity of 100%.
The plants are then placed in a greenhouse at approximately 21° C. and a relative atmospheric humidity of approximately 90%.
The test is evaluated 10 days after the inoculation. 0% means an efficacy which corresponds to that of the untreated control, while an efficacy of 100% means that no disease is observed.

[2] = system: Blumeria graminis f.sp. hordei; assay: Blumeria test (barley) / preventive; format: in vivo; conditions: 500 ppm of active ingredient, evaluated 7 days after inoculation
Procedure: Blumeria Test (Barley)/Preventive
(§5) To produce a suitable preparation of active compound, 1 part by weight of active compound or active compound combination is mixed with the stated amounts of solvent and emulsifier, and the concentrate is diluted with water to the desired concentration.
(§6) To test for preventive activity, young plants are sprayed with the preparation of active compound or active compound combination at the stated rate of application.
After the spray coating has been dried, the plants are dusted with spores of Blumeria graminis f.sp. hordei.
The plants are placed in the greenhouse at a temperature of approximately 18° C. and a relative atmospheric humidity of approximately 80% to promote the development of mildew pustules.
as §2

Septoria tritici = Septoria tritici test (wheat) / preventive; format: in vivo; conditions: 500 ppm of active ingredient, evaluated 21 days after inoculation
Procedure: Septoria Tritici-Test (Wheat)/Preventive
as §5, §6
After the spray coating has been dried, the plants are sprayed with a spore suspension of Septoria tritici. The plants remain for 48 hours in an incubation cabinet at approximately 20° C. and a relative atmospheric humidity of approximately 100% and afterwards for 60 hours at approximately 15° C. in a translucent incubation cabinet at a relative atmospheric humidity of approximately 100%.
The plants are placed in the greenhouse at a temperature of approximately 15° C. and a relative atmospheric humidity of approximately 80%.
The test is evaluated 21 days after the inoculation. 0% means an efficacy which corresponds to that of the untreated control, while an efficacy of 100% means that no disease is observed.

Q: What does the source list for `CC(C)C1C2CCC1C1C(NC(=O)c3c(C(F)F)nn(C)c3F)CCCC21` (stereo not drawn) [Example 1, 3-(difluoromethyl)-5-fluoro-N-(9-isopropyldecahydro-1,4-methanonaphthalen-5-yl)-1-methyl-1H-pyrazole-4-carboxamide]?
A: LogP[b] ([1]; HPLC, pH 2.7, 0.1% formic acid in water / acetonitrile gradient): LogP^[b] = 4.87; chromatographic logP ([1]; reversed phase HPLC columns, pH 2.7, acid): 4.87; Eff. % (Sphaerotheca fuliginea): 100%; Eff. % (Alternaria solani): 95%; Eff. % (Pyrenophora teres): 100%; Eff. % (Puccinia recondita): 95%; Eff. % (Venturia inaequalis): 100%; Eff. % [2]: 100%; Eff. % (Septoria tritici): 90%
